From PubChem BioAssay AID1645848 come the findings set out here.

In brackets after ≈: the same amount, converted by molar mass.

For the data set the following is noted: buffer; pH 7.4; 6.0 h; 150.0 µM.
For orientation: kinetic solubility means solubility judged after dilution from a stock solution rather than from solid. On to `CC1=C(C(=O)Nc2ccccc2Cl)C(c2ccccc2Br)N=C(Nc2nc3ccccc3o2)N1` (stereo not drawn), for which the solubility (kinetic) is less than 1 µg/mL.

For `CC(=O)c1c(C)[nH]c(C(=O)Nc2cccc(S(=O)(=O)Nc3ccc(Br)cc3)c2)c1C`, the kinetic solubility is less than 1 µg/mL.

On to `Cc1cnc(-c2ccccc2C(F)F)nc1NCc1ccc(-c2cccnc2)cc1`, for which the kinetic solubility came out at 1.07 µg/mL (≈ 2.66 µM).

In turn, `O=C(CCCc1ccc2cccnc2n1)NCc1cc(-c2ccc(F)c(C(F)(F)F)c2)no1` had a kinetic solubility of 3.29 µg/mL (≈ 7.18 µM).

`Cc1ccc(C)c(CN2C(=O)c3ccccc3S(=O)c3ccc(C(=O)N4CCN(c5ccccc5F)CC4)cc32)c1` (stereo not drawn) returned a solubility (kinetic) of less than 1 µg/mL.

For the molecule `CN(C)c1cccc(-c2ncnc(N3CCC(C(N)=O)CC3)n2)c1`, the solubility (kinetic) was greater than 48 µg/mL.

The molecule `Brc1ccc(-c2csc(N3CCC(c4nn[nH]n4)CC3)n2)cc1` gave a solubility (kinetic) greater than 58 µg/mL.

Molecule `COc1ccc(-n2nc(C3CCCN(C(=O)c4ccc(C)cc4)C3)[nH]c2=O)cc1` (stereo not drawn) had a solubility (kinetic) of 39.4 µg/mL (≈ 100 µM).

Consider `C[S+](=O)([O-])c1ccc(-c2nc(C(=O)N3CCOCC3)n3ccncc23)cc1`, for which the solubility (kinetic) is greater than 57 µg/mL.

Molecule `CC(Nc1ncnc2c1cnn2-c1cccc(Cl)c1)c1ccccc1` (stereo not drawn) registered a solubility (kinetic) of less than 1 µg/mL.

For `Cc1nn2c(c1-c1ccccc1-c1ccccc1)N(Cc1ccccc1)CCC2`, the solubility (kinetic) was determined as 4.07 µg/mL (≈ 10.7 µM).

`COc1cccc(CNc2ccc(S(=O)(=O)Nc3ncccn3)cc2)c1O`: the solubility (kinetic) was greater than 57 µg/mL.

The molecule `Cc1ccc(OCCn2c(CCNC(=O)C3CCCCC3)nc3ccccc32)cc1` showed a solubility (kinetic) of less than 1 µg/mL.

Consider `Cc1noc(C)c1-c1ccc2ncnc(N3CCC(C(=O)O)CC3)c2c1`, for which the solubility (kinetic) was greater than 52 µg/mL.

Turning to `O=[S+]([O-])(Nc1ccccc1)c1ccc(NCc2ccc(Cl)cc2O)cc1`, the kinetic solubility came to 2.64 µg/mL (≈ 6.79 µM).

Molecule `Cc1ccc(Nc2nc(C)c(NC(=O)c3ccc(C)cc3)c(Nc3ccc(C)cc3)n2)cc1` came in with a solubility (kinetic) of less than 1 µg/mL.

As for `Cc1sc(NC(=O)Cc2ccc3c(c2)OCO3)nc1-c1ccc2c(c1)CCN2C(=O)c1ccccc1Cl`, the solubility (kinetic) was less than 1 µg/mL.

For the molecule `Cc1cnc(-c2ccccc2C(C)C)nc1NCC1CCN(c2cccnc2)C1` (stereo not drawn), the solubility (kinetic) is 7.52 µg/mL (≈ 19.4 µM).

For `CCn1c(=NC(=O)c2ccc(S(=O)(=O)N3CCCCC3)cc2)sc2cccc(OC)c21`, the kinetic solubility was less than 1 µg/mL.

As to `O=C(O)CCNc1cc(N2CCc3ccccc3CC2)nc(-c2cccnc2)n1`, the solubility (kinetic) was greater than 58 µg/mL.

Turning to `O=C(NC1CCCc2c1cnn2-c1ccc(F)cc1F)c1ccc(C2(C(F)(F)F)N=N2)cc1` (stereo not drawn), the kinetic solubility was less than 1 µg/mL.

In the case of `Cc1ccccc1CN1C2=NCCN2C(=O)C2=C1CCN(Cc1ccccc1)C2`, the solubility (kinetic) amounted to 26.7 µg/mL (≈ 69 µM).

The molecule `COc1cncc(Nc2ncc(-c3cccc(N(C)C)c3)c3c2OCC3)c1` had a solubility (kinetic) of less than 1 µg/mL.

Take `O=C(Nc1ccc([S+](=O)([O-])Nc2nccs2)cc1)c1ncn[nH]1`: the kinetic solubility was greater than 52 µg/mL.

The molecule `O=C1Nc2ccccc2/C1=C\c1cc(F)c(O)c(F)c1` returned a kinetic solubility greater than 40 µg/mL.

In turn, `Cc1ccc(NS(=O)(=O)c2c(C)[nH]c(C)c2C(=O)N2CCCC2)cc1Cl` had a solubility (kinetic) of 48 µg/mL (≈ 121 µM).

`CSc1ccc(C(=O)c2[nH]c(=O)[nH]c2C)cc1` registered a solubility (kinetic) greater than 37 µg/mL.

For `Cc1ccccc1C(C(=O)NC1CCCC1)N(C(=O)Cn1cnc2ccccc21)c1cccc(F)c1` (stereo not drawn), the kinetic solubility came out at 12.2 µg/mL (≈ 25.1 µM).

As to `COc1cc(NS(=O)(=O)c2ccc(C)cc2)c(C(=O)Nc2nc(-c3ccccc3)cs2)cc1OC`, the kinetic solubility was less than 1 µg/mL.

`Brc1ccccc1-c1nc(NCc2ccc(-c3cccnc3)cc2)c2ccccc2n1` gave a kinetic solubility of less than 1 µg/mL.

Take `CCc1ccccc1-n1c(SCC(=O)Nc2ccc(C)cc2)nc2n[nH]c(C)c2c1=N`: the kinetic solubility is less than 1 µg/mL.

`O=C(Nc1ccc(Oc2ccnc3[nH]ccc23)c(F)c1)c1cccn(-c2ccc(F)cc2)c1=O`: the solubility (kinetic) was less than 1 µg/mL.

Molecule `Cc1cccc(-c2[nH]c(C(C)(C)C)nc2-c2ccc3nccnc3c2)n1` came in with a kinetic solubility greater than 51 µg/mL.

In turn, `Cc1ccc(-c2cc(C(=O)NC3CCCCC3)c3ccccc3n2)cc1` gave a kinetic solubility of less than 1 µg/mL.

In turn, `CN(C)c1ccc(-c2cc[nH]c(=O)c2N)cc1` registered a solubility (kinetic) greater than 34 µg/mL.

For the molecule `O=C(Nc1nc(-c2ccccc2)cs1)c1ccncc1NS(=O)(=O)c1ccccc1F`, the kinetic solubility came to 38.8 µg/mL (≈ 85.4 µM).

As for `COc1cccc(CN(C)c2ccc([S+](=O)([O-])Nc3nccs3)cc2)c1O`, the kinetic solubility was 2.08 µg/mL (≈ 5.13 µM).

In the case of `Fc1cc(Nc2nc(-c3ccncc3)nc3ccccc23)ccc1-c1ccncc1`, the solubility (kinetic) is less than 1 µg/mL.

On to `CC(C)NC(=O)C1CCN(C(=O)c2cc3sccc3n2Cc2ccc(Cl)cc2)CC1`, for which the kinetic solubility is less than 1 µg/mL.

Molecule `COC(=O)CNC(=O)c1nc(-c2ccc(Cl)nc2)c2cnccn12` displayed a kinetic solubility greater than 61 µg/mL.

In the case of `O=C(c1ccccc1)N1CCC(c2nn(-c3ccc(F)cc3)c(=O)[nH]2)CC1`, the kinetic solubility is greater than 54 µg/mL.

Consider `COC(=O)c1ccc(O)c2ncc(N3CCN(C)CC3)cc12`, for which the solubility (kinetic) is greater than 30 µg/mL.

In turn, `Cc1ccc(-c2nn(C(C)(C)C)c3ncnc(N)c23)cc1` had a solubility (kinetic) of 2.5 µg/mL (≈ 8.88 µM).

`COc1ccc(C2c3c(oc4ccc(C)cc4c3=O)C(=O)N2CCCN2CCOCC2)cc1OC` (stereo not drawn) yielded a solubility (kinetic) greater than 71 µg/mL.

`CS(=O)(=O)c1ccc(-c2nnc(/C=C/c3nnc(-c4ccc(C#N)cc4)o3)n2-c2ccccc2Cl)nc1` showed a solubility (kinetic) of 4.17 µg/mL (≈ 7.86 µM).

Consider `Cc1ccc(C(=O)N2CCc3sc(C(=O)NC(C)c4ccccc4)cc3C2)cc1` (stereo not drawn), for which the kinetic solubility was determined as 2.09 µg/mL (≈ 5.17 µM).

Regarding `CC(C)c1ccc(OCc2nc3c(n2Cc2ccccc2)C(=O)N(CC2CCOCC2)CCN3)cc1`, the kinetic solubility is less than 1 µg/mL.

In turn, `CC1=C(C(=O)NC2CCCCC2)C(c2ccccc2Br)N=C(Nc2nc3ccccc3o2)N1` (stereo not drawn) returned a kinetic solubility of less than 1 µg/mL.

Consider `Cc1ccc(S(=O)(=O)Nc2ccccc2C(=O)Nc2cccc(-c3ccccc3)c2)cc1`, for which the kinetic solubility is less than 1 µg/mL.

The molecule `Cc1ccc(S(=O)(=O)Nc2cc(C(=O)Nc3nc(-c4ccccc4)cs3)ccc2Cl)cc1` gave a solubility (kinetic) of less than 1 µg/mL.

`Cc1noc(C)c1-c1csc(N2CCC(C(N)=O)CC2)n1` yielded a solubility (kinetic) greater than 45 µg/mL.

As to `CCOC(=O)c1csc(NC(=O)c2ccncc2NS(=O)(=O)c2ccc(C)cc2)n1`, the solubility (kinetic) came to 3.2 µg/mL (≈ 7.16 µM).

For `Fc1ccccc1-c1nc(NCc2ccc(-c3cccnc3)cc2)c2ccccc2n1`, the solubility (kinetic) is less than 1 µg/mL.

The molecule `COC[C@@H]1CN(C(=O)c2n[nH]c3ccccc23)C[C@H]1c1nc(C)no1` showed a kinetic solubility greater than 100 µg/mL.

Regarding `CCc1ccc(OC(C)C(=O)N2CCC(c3nc4ccccc4o3)CC2)cc1` (stereo not drawn), the kinetic solubility turned out to be 17.9 µg/mL (≈ 47.3 µM).

As to `CC(C)Oc1ccc(-c2ccc(=O)n(CC(=O)NCCc3ccccc3)n2)cc1`, the kinetic solubility came out at 16.8 µg/mL (≈ 43 µM).

With `O=C1Nc2ccccc2/C1=C/c1ccnc2ccccc12`, the kinetic solubility was 3.07 µg/mL (≈ 11.3 µM).

Consider `CCOC(=O)C1CCN(C(=O)C2(NC(=O)Nc3ccc(F)cc3F)CCCCC2)CC1`, for which the kinetic solubility turned out to be 41.8 µg/mL (≈ 95.6 µM).

With `Oc1ccc(CNc2cccc(F)c2)c2cccnc12`, the solubility (kinetic) is less than 1 µg/mL.

Molecule `CC1CCN(C(=O)c2ccc(-c3ccc(N4CCSCC4)nc3)cc2)CC1` gave a solubility (kinetic) of 2.44 µg/mL (≈ 6.4 µM).

Molecule `CCN(CC)C(=O)c1ccc2c(c1)ncn2-c1cccc(C)c1` displayed a solubility (kinetic) greater than 45 µg/mL.

`CCOC(=O)c1ccc(N2C(=O)c3n[nH]c(-c4cccs4)c3C2c2ccc(Cl)cc2Cl)cc1` (stereo not drawn) registered a kinetic solubility of less than 1 µg/mL.

With `CCCN(CCC)CCc1cccc2c1CC(=O)N2`, the solubility (kinetic) came out at 23.2 µg/mL (≈ 88.9 µM).
